In the NIST ThermoML archive (doi:10.1016/j.tca.2011.08.002):

Assay: refractive index (Na D-line) (dimensionless); xn = mol fraction of the nth substance listed
Details: 101 kPa, Liquid, Standard Abbe refractometry

C1CCC(NC2CCCCC2)CC1 [N-cyclohexylcyclohexanamine] + CCCO
refractive index
Details | 288.15 K | 293.15 K | 298.15 K | 303.15 K | 308.15 K | 313.15 K | 318.15 K | 323.15 K
x2 = 0 | 1.48636 | 1.48416 | 1.48198 | 1.47978 | 1.47761 | 1.47562 | 1.47347 | 1.47134
x2 = 0.0527 | 1.48522 | 1.48299 | 1.48079 | 1.47861 | 1.47642 | 1.4743 | 1.47211 | 1.46997
x2 = 0.1009 | 1.48396 | 1.48175 | 1.47952 | 1.47729 | 1.47508 | 1.47287 | 1.47068 | 1.46853
x2 = 0.2004 | 1.48074 | 1.47851 | 1.47626 | 1.47402 | 1.47179 | 1.4695 | 1.4673 | 1.4651
x2 = 0.3002 | 1.47672 | 1.47445 | 1.47217 | 1.4699 | 1.46765 | 1.46533 | 1.46306 | 1.46087
x2 = 0.4003 | 1.47182 | 1.4695 | 1.46722 | 1.46491 | 1.46262 | 1.46024 | 1.45795 | 1.4557
x2 = 0.5005 | 1.46554 | 1.4632 | 1.46088 | 1.45856 | 1.45625 | 1.45383 | 1.45151 | 1.4492
x2 = 0.6 | 1.45743 | 1.45509 | 1.45273 | 1.4504 | 1.44805 | 1.44565 | 1.44331 | 1.44112
x2 = 0.6998 | 1.44689 | 1.44458 | 1.44226 | 1.43992 | 1.43759 | 1.43509 | 1.43279 | 1.43046
x2 = 0.8 | 1.4327 | 1.43047 | 1.4282 | 1.42592 | 1.42358 | 1.42112 | 1.41883 | 1.41649
x2 = 0.8999 | 1.41365 | 1.41145 | 1.40927 | 1.40709 | 1.40482 | 1.40242 | 1.40021 | 1.39788
x2 = 0.9491 | 1.40206 | 1.39989 | 1.3977 | 1.39547 | 1.39323 | 1.39093 | 1.38876 | 1.38638
